Measured values from US4665083A, “Iminothiazolidine derivatives” (priority 1984, dated 1987).

Tests used:
[1] = in vivo; details: mouse, mice, oral, 7 days observation, Litchfield-Wilcoxon
Experimental: (1) Acute toxicity on mice
The acute toxicity is determined on mice of both sex (CFLP breed, body weight 18 to 22 g). For each dosis 6 animals are employed. The compounds tested are administered orally in a volume of 20 ml/kg body weight. After the administration the animals are observed for 7 days. During this period the animals are fed with standard mouse feed and water ad libitum. The toxicity values are determined according to Litchfield-Wilcoxon's method.

[2] = system: narcosis; assay: Potentiation of narcosis; details: for Therapeutical index (potentiation of narcosis): LD50 and ED50 narcosis; for ED50: read-out: Potentiation of narcosis ED50
[3] = system: Tetrabenazine ptosis; assay: animal or person; type: in vivo; details: for Therapeutical index (tetrabenazine ptosis antagonism): LD50 and ED50 tetrabenazine ptosis, mice; for ED50: Mus musculus, po, read-out: Tetrabenazine ptosis antagonism ED50
Experimental: (2) Tetrabenazine ptosis antagonism on mice
The tetrabenazine ptosis antagonism of the compounds are tested on groups consisting of 10 mice each. […] 30 minutes after the introduction of the active agent or the vehicle, 50 mg/kg of tetrabenazine (3-isobutyl-9,10-[…]-1,2,3,4,6,7-hexahydrobenzo[a]quinolizine-2-one) are administered, intraperitoneally, and the animals with ptosis are counted 30, 60, 90 and 120 minutes after the administration of the tetrabenazine.
Evaluation: the average ptosis value is calculated in each group, and the deviation from the average obtained for the control group (inhibition) is given in percentage. From the data obtained ED50 values are calculated.

[4] = system: yohimbine toxicity; assay: animal or person; type: in vivo; details: for Therapeutical index (potentiation of yohimbine toxicity): LD50 and ED50 yohimbine toxicity, mice; for ED50: Mus musculus, ip, read-out: Potentiation of yohimbine toxicity ED50
Experimental: (4) Yohimbine toxicity test on mice.
The examination is performed according to Quinton's method. Each group of animals consisting of 10 mice are treated with the compounds to be tested and the vehicle without active agent, respectively. After one hour a sublethal dosage of yohimbine in a volume of 20 ml/kg body weight is administered to the test groups, intraperitoneally. The number of the dead animals is recorded 1 and 24 hours after the administration of yohimbine.

[5] = system: nicotine lethality; assay: Inhibition of nicotine spasm / nicotine lethality; type: in vivo, mice; details: mice; for Therapeutical index (inhibition of nicotine lethality): LD50 and ED50 nicotine lethality; for ED50: Mus musculus, oral, 1 hour before 1.4 mg/kg i.v. nicotine, read-out: Inhibition of nicotine lethality ED50
Experimental: (5) Inhibition of nicotine spasm
The test is carried out on mice according to Stone.

[6] = system: pentatetrazole spasm; assay: animal or person; type: in vivo; details: for Therapeutical index (inhibition of pentatetrazole spasm): LD50 and ED50 pentatetrazole spasm, mice; for ED50: Mus musculus, po, read-out: Inhibition of pentatetrazole spasm ED50
Experimental: (6) Inhibition of pentatetrazole spasm
The test is performed on mice according to a modified method of Banziger and Hane.

[7] = system: maximum electroshock; assay: animal or person; type: in vivo; details: for Therapeutical index (inhibition of maximum electroshock): LD50 and ED50 electroshock, mice; for ED50: Mus musculus, po, read-out: Inhibition of maximum electroshock ED50
Experimental: (7) Maximum inhibition of electroshock
The examination is carried out on mice weighing 20 to 25 g according to Swinyard. Electroshocks having the parameters of 50 Hz, 45 mA and 0.4 sec are employed by means of corneal electrodes. The complete inhibition of the tonic spasm of the lower limb extensor is taken as the criterium of the anticonvulsive action.

[8] = system: acetic acid writhing; assay: animal or person; type: in vivo; details: for Therapeutical index (analgesic effect, writhing test): LD50 and ED50 writhing test, mice; for ED50: Mus musculus, ip, read-out: Analgesic effect (writhing test) ED50
Experimental: (9) Analgesic effect on mice (writhing test)
The test is carried out on mice according to the modified method of Newbould. 0.75 percent acetic acid is administered to the animals in a volume of 20 ml/kg, intraperitoneally, and the characteristic "writhing reactions" are counted for a period of 5 minutes, starting from the fifth minute after challenge. […] The inhibition relative to the control group is evaluated in percentage.

[9] = system: Reserpine ptosis; assay: animal or person; type: in vivo
Experimental: (3) Reserpine ptosis antagonism on mice
Each group consisting of 10 mice are treated with 6 mg/kg of reserpine, subcutaneously. […] The animals with ptosis are counted 60 and 120 minutes after the administration of the compounds to be tested. Evaluation is carried out as given under point (2) above.

[10] = system: intestinal peristalsis; assay: animal or person; type: in vivo
Experimental: (8) Antiperistaltic effect on mice
The antiperistaltic effect of the compounds is examined on mice weighing 20 to 25 g according to the method of Stickney and co-workers. Each dosis of the compound to be tested is administered, orally, 60 minutes prior to the administration of a 10 percent carbon suspension. […] 20 minutes after the administration of the carbon suspension, the animals are sacrificed, and the length of the entire small intestine as well as that of the small intestine filled with carbon are determined. The inhibition in relation to the control is calculated in percentage. […] From the values thus-transformed ED50 values are calculated.

SMILES	LD50 at 168 h [1]	Therapeutical index (potentiation of narcosis) [2]	ED50 [2]	Therapeutical index (tetrabenazine ptosis antagonism) [3]	ED50 [3]	Therapeutical index (potentiation of yohimbine toxicity) [4]	ED50 [4]	Therapeutical index (inhibition of nicotine lethality) [5]	ED50 [5]	Therapeutical index (inhibition of pentatetrazole spasm) [6]	ED50 [6]	Therapeutical index (inhibition of maximum electroshock) [7]	ED50 [7]	Therapeutical index (analgesic effect, writhing test) [8]	ED50 [8]	Therapeutical index (reserpine ptosis antagonism) ([9]; LD50 and ED50 reserpine ptosis, mice)	ED50 ([9]; Mus musculus, sc, 1 h, read-out: Reserpine ptosis antagonism ED50)	Therapeutical index (inhibition of intestinal peristalsis) ([10]; LD50 and ED50 intestinal peristalsis, mice)	ED50 ([10]; Mus musculus, po, read-out: Inhibition of intestinal peristalsis ED50)
CCCC(C)(COC(N)=O)COC(N)=O [Meprobamate, reference compound]	1100 mg/kg	4.2	260 mg/kg																
CC1CN(c2ccc(Cl)cc2N)C(=N)S1.CCS(=O)(=O)O (stereo not shown) [Compound 12, 3-(2-amino-4-chlorophenyl)-2-imino-5-methylthiazolidine ethanesulfonate]		14.0	41 mg/kg	83	7.2 mg/kg	13.3	45 mg/kg	100	6 mg/kg	40	15 mg/kg	30	12 mg/kg	17.7	34 mg/kg				
CCS(=O)(=O)O.CCS(=O)(=O)O.N=C1SCCN1c1ccc(Cl)cc1N [Compound 8, 3-(2-amino-4-chlorophenyl)-2-iminothiazolidine di(ethanesulfonate)]	1000 mg/kg			667	1.5 mg/kg	45.5	22 mg/kg	83.3	12 mg/kg	71.4	14 mg/kg	12.5	80 mg/kg	5.9	170 mg/kg	50	20 mg/kg	10.5	95 mg/kg
